Like-named read-outs stand apart in the source and are kept apart here.
How the values were obtained:
Assay type in all cases: biochemical
[1] = molecular target: T1, recombinant human MMP-9 mixture (± 70% monomers and ± 30% trimers) (Homo sapiens, UniProt P14780); assay: Gelatin degradation assay, recombinant MMP-9 mixture; details: recombinant human MMP-9 (Sf9) mix, best-fit value
T1 construct: made in house; host or cells: Sf9 insect cells
Method: (§1) Compounds 5 and 7 were synthesized as previously reported. Full-length human proMMP-9 was produced by recombinant expression in Sf9 insect cells and purified by gelatin-Sepharose chromatography as previously described. Stable full-length proMMP-9 monomers and trimers were separated by glycerol gradient ultracentrifugation as previously described. ProMMP-9 mixture and the separated monomers and trimers were activated by incubation with the catalytic domain of MMP-3 (cat. No. 444217, Merck Millipore, Darmstadt, Germany) as previously described. Activation of proMMP-9 was confirmed by a band shift of ±10 kDa, corresponding to the removal of the auto-inhibitory propeptide domain and by detection of gelatinolytic activity with a previously described gelatin degradation assay. MMP-9 monomers and trimers purified from human neutrophils were purchased (Cat. No. 444,231 and 444232, Sigma-Aldrich, St. Louis, MO, USA). Examples of sample purities and activations can be found in Supplementary Figure S1. Recombinant human proMMP-2 (CHO cell-derived), proMMP-3 (NS0 cell-derived), proMMP-7 (NS0 cell-derived) and proMMP-8 (NS0 cell-derived) were purchased from R & D systems (Minneapolis, MN, USA), dissolved in assay buffer (150 mM NaCl, 5 mM CaCl2, 0.01% Tween-20, 50 mM Tris, pH 7.4) to a concentration of 100 µg/mL and activated by incubation with 1 mM p-aminophenylmercuric acetate for, respectively, 1h, 6h, 2h and 1h. Activation of MMPs was confirmed by a band shift of approximately 10 kDa, corresponding to the removal of the propeptide domain. MMP-14/MT1-MMP (NS0 cell-derived) was also purchased from R & D systems (Minneapolis, MN, USA) and activated by incubation with recombinant human furin (cat. No. 1503-SE-010, R & D systems, Minneapolis, MO, USA) in activation buffer (50 mM Tris, 1 mM CaCl2, 0.5% Brij-35, pH 9) for 1.5 h and activity was tested in assay buffer (50 mM Tris, 3 mM CaCl2, 1 µM ZnCl2, pH 8.5). Active human neutrophil elastase (NE) was purchased from Abcam (Cambridge, UK) and for activity assays of NE the assay buffer was replaced by 200 mM Tris, pH 8.8. ADAM17/TACE (Sf 21 (baculovirus)-derived, R & D systems, Minneapolis, MO, USA) was diluted and evaluated in 25 mM Tris, 2.5 μM ZnCl2, 0.005% Brij-35, pH 9.0. All stocks of the compounds were evaluated for the presence of endotoxin using the EndoZyme II assay (Hyglos bioMérieux, Bernried am Starnberger See, Germany). Endotoxin levels in all concentrated stocks (2.5 mg/mL) were below the accepted limit of 0.5 EU/mL.
(§2) To determine the inhibition of gelatinolytic activity, we used a previously optimized gelatin degradation assay. Activated MMP-9, activated MMP-2, neutrophil elastase or supernatants of stimulated neutrophils, were incubated with different concentrations of inhibitors and incubated for 30 min at 37 °C. Next, dye-quenched gelatin (DQ™-gelatin, Invitrogen, Carlsbad, CA, USA) was added at a final concentration of 2.5 µg/mL and the increase in fluorescence over time was measured with the CLARIOstar microplate reader (BMG Labtech, Ortenberg, Germany). For other MMPs, the OmniMMP substrate peptide (Mca-PLGL-Dpa-AR-NH2, cat. no. BML-P126-0001, Enzo Life Sciences, Farmingdale, NY, USA) was used at a final concentration of 2.5 µg/mL. For ADAM17 the fluorogenic peptide Mca-PLAQAV-Dpa-RSSSR-NH2 (ES003, R & D systems, Minneapolis, MO, USA) and for neutrophil elastase the fluorogenic substrate MeOSuc-AAPV-AMC (cat. no. 324740, Merck Millipore, Darmstadt, Germany) were used. Proteolytic activity was determined by linear regression of the fluorescence curve and the percentage inhibition was calculated through comparison with the positive control (no inhibitors). When testing supernatants from human neutrophils, the assay was performed in the presence of 20 µM neutrophil elastase inhibitor (Elastase Inhibitor IV, Calbiochem, Darmstadt, Germany).

[2] = molecular target: T2, recombinant human MMP-9 monomers (Homo sapiens, UniProt P14780); assay: Gelatin degradation assay, recombinant MMP-9 monomers; details: recombinant human MMP-9 (Sf9) mono
T2 construct: made in house; host or cells: Sf9 insect cells
Method: as §1, §2

[3] = molecular target: T3, human neutrophil-derived MMP-9 trimers (Homo sapiens, UniProt P14780); assay: Gelatin degradation assay, neutrophil-derived MMP-9 trimers; details: for IC25 / IC50 / IC75: MMP-9 isolated from human neutrophils, tri, gelatin degradation
T3 construct: purchased Sigma-Aldrich 444232; host or cells: human neutrophils (natural protein)
Method: as §1, §2

[4] = molecular target: T4, MMP-14/MT1-MMP (Homo sapiens, UniProt P50281); assay: MMP-14 OmniMMP peptide assay
T4 construct: purchased R & D systems; host or cells: NS0 cells
Method: as §1, with “Active human neutrophil elastase (NE) was purchased from Abcam (Cambridge, UK) and for activity assays of NE the assay buffer was replaced by 200 mM Tris, pH 8.8.” left out, “Endotoxin levels in all concentrated stocks (2.5 mg/mL) were below the accepted limit of 0.5 EU/mL.” left out
To determine the inhibition of gelatinolytic activity, we used a previously optimized gelatin degradation assay. […] Next, dye-quenched gelatin (DQ™-gelatin, Invitrogen, Carlsbad, CA, USA) was added at a final concentration of 2.5 µg/mL and the increase in fluorescence over time was measured with the CLARIOstar microplate reader (BMG Labtech, Ortenberg, Germany). […] Proteolytic activity was determined by linear regression of the fluorescence curve and the percentage inhibition was calculated through comparison with the positive control (no inhibitors). […]

[5] = molecular target: T5, MMP-7 (Homo sapiens, UniProt P09237); assay: MMP-7 OmniMMP peptide assay; details: OmniMMP substrate peptide
T5 construct: purchased R & D systems; host or cells: NS0 cells
T5 sequence (P09237 95-267): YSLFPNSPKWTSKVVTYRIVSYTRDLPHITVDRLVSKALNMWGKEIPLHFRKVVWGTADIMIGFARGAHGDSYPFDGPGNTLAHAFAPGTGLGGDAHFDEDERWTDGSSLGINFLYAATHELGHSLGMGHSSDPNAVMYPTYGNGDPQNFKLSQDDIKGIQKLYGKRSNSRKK
Method: (§3) Compounds 5 and 7 were synthesized as previously reported. Full-length human proMMP-9 was produced by recombinant expression in Sf9 insect cells and purified by gelatin-Sepharose chromatography as previously described. Stable full-length proMMP-9 monomers and trimers were separated by glycerol gradient ultracentrifugation as previously described. ProMMP-9 mixture and the separated monomers and trimers were activated by incubation with the catalytic domain of MMP-3 (cat. No. 444217, Merck Millipore, Darmstadt, Germany) as previously described. […] ADAM17/TACE (Sf 21 (baculovirus)-derived, R & D systems, Minneapolis, MO, USA) was diluted and evaluated in 25 mM Tris, 2.5 μM ZnCl2, 0.005% Brij-35, pH 9.0. All stocks of the compounds were evaluated for the presence of endotoxin using the EndoZyme II assay (Hyglos bioMérieux, Bernried am Starnberger See, Germany). […]
(§4) To determine the inhibition of gelatinolytic activity, we used a previously optimized gelatin degradation assay. […] Next, dye-quenched gelatin (DQ™-gelatin, Invitrogen, Carlsbad, CA, USA) was added at a final concentration of 2.5 µg/mL and the increase in fluorescence over time was measured with the CLARIOstar microplate reader (BMG Labtech, Ortenberg, Germany). […]

[6] = molecular target: T6, MMP-2 (Homo sapiens, UniProt P08253); assay: MMP-2 gelatin degradation assay; details: gelatin substrate
T6 construct: purchased R & D systems; host or cells: CHO cells
T6 sequence (P08253 110-660): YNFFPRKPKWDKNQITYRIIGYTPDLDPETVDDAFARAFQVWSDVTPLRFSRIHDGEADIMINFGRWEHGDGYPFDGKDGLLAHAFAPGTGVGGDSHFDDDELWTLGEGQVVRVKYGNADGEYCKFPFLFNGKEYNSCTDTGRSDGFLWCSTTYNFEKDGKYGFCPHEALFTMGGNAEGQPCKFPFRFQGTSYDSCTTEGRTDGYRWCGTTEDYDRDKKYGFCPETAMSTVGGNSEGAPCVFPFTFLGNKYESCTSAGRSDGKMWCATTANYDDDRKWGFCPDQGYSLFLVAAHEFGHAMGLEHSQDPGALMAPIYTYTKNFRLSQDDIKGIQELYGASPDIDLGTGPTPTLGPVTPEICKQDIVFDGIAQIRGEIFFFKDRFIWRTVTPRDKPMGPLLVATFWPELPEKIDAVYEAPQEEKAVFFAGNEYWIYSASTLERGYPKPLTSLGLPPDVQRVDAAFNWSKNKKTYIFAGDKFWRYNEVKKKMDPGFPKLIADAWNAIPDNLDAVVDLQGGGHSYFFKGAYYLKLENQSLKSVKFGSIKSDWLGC
Method: as §3, §4

T2 sequence (P14780 107-707 limits assumed): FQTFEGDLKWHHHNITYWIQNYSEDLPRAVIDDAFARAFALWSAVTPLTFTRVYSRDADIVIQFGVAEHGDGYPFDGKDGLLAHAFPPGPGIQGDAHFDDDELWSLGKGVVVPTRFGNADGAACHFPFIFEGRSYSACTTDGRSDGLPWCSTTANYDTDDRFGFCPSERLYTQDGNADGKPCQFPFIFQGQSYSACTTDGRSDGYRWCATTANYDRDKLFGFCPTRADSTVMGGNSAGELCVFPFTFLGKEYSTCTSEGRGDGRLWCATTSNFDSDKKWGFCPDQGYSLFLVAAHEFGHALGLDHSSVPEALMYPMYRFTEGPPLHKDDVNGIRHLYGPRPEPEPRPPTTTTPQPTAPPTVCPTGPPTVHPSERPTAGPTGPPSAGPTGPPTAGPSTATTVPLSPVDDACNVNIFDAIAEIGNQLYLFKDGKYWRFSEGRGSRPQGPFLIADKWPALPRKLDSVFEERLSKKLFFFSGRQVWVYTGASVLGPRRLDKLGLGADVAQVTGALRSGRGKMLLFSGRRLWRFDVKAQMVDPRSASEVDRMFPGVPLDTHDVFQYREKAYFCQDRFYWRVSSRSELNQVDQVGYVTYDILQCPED
T1 sequence (P14780 107-707 limits assumed): as above
T3 sequence (P14780 107-707 limits assumed): as above

Q: For `CC(C)[C@H](C(=O)O)N(CCNC(=O)c1ccccc1)S(=O)(=O)c1ccc(-c2ccccc2)cc1` [Compound 5], which IC25 [1] is on record?
A: The IC25 was 359 nM.

Q: And the IC50 [1]?
A: Its IC50 is 1410 nM.

Q: What about the IC75 [1] of the same compound?
A: Its IC75 is 5509 nM.

Q: And the IC25 [2]?
A: The IC25 was 392 nM.

Q: And the IC50 [2]?
A: The IC50 was 1520 nM.

Q: And the IC75 [2]?
A: Its IC75 is 5859 nM.

Q: And the IC25 [3]?
A: Its IC25 is 479 nM.

Q: What about the IC50 [3] of the same compound?
A: The IC50 was 4220 nM.

Q: And the IC75 [3]?
A: The IC75 was 17212 nM.

Q: And the IC50 [4]?
A: The IC50 was greater than 1000 nM.

Q: What about the IC50 ([4]; OmniMMP substrate peptide) of the same compound?
A: Its IC50 is 14800 nM.

Q: What about the IC50 [5] of the same compound?
A: The IC50 was greater than 10000 nM.

Q: What about the IC50 [6] of the same compound?
A: Its IC50 is 1720 nM.

Q: `CC(C)[C@H](C(=O)O)N(CCNC(=O)c1cccc(C(=O)NCCN([C@@H](C(=O)O)C(C)C)S(=O)(=O)c2ccc(-c3ccccc3)cc2)c1)S(=O)(=O)c1ccc(-c2ccccc2)cc1` [Compound 7] was tested. Which IC25 [1] did it give?
A: Its IC25 is 28 nM.

Q: What about the IC50 [1] of the same compound?
A: Its IC50 is 182 nM.

Q: What about the IC75 [1] of the same compound?
A: The IC75 was 627 nM.

Q: And the IC25 [2]?
A: Its IC25 is 48 nM.

Q: And the IC50 [2]?
A: Its IC50 is 191 nM.

Q: And the IC75 [2]?
A: The IC75 was 754 nM.

Q: What about the IC25 [3] of the same compound?
A: Its IC25 is 0.008 nM.

Q: And the IC50 [3]?
A: The IC50 was 0.066 nM.

Q: And the IC75 [3]?
A: Its IC75 is 0.6 nM.

Q: And the “fold difference between monomeric and trimeric MMP-9” value ([3]; MMP-9 purified from human neutrophils, gelatin substrate)?
A: Its value is 650 fold.

Q: And the IC50 [4]?
A: Its IC50 is greater than 1000 nM.

Q: What about the IC50 ([4]; OmniMMP substrate peptide) of the same compound?
A: The IC50 was 1080 nM.

Q: What about the IC50 [5] of the same compound?
A: Its IC50 is greater than 10000 nM.

Q: What about the IC50 [6] of the same compound?
A: Its IC50 is 4.8 nM.

From publication PMC7408547, “Bivalent Inhibitor with Selectivity for Trimeric MMP-9 Amplifies Neutrophil Chemotaxis and Enables Functional Studies on MMP-9 Proteoforms” (Cells, 2020)
